Values quoted from earlier work in patent US10493089B2, “Solid composition comprising amorphous sofosbuvir” (priority 2014, dated 2019).

| Structure (SMILES) | relative humidity at which it deliquesces (amorphous form compared to crystalline forms) | behaviour under stress conditions (40° C., relative humidity 75%) |
| --- | --- | --- |
| CC(C)OC(=O)[C@H](C)N[P@](=O)(OC[C@H]1O[C@@H](n2ccc(=O)[nH]c2=O)[C@](C)(F)[C@@H]1O)Oc1ccccc1 [Amorphous sofosbuvir] | above 50% |  |
| CC(C)OC(=O)[C@H](C)N[P@](=O)(OC[C@H]1O[C@@H](n2ccc(=O)[nH]c2=O)[C@](C)(F)[C@@H]1O)Oc1ccccc1 [sofosbuvir, (S)-isopropyl 2-(((S)-(((2R,3R,4R,5R)-5-(2,4-dioxo-3,4-dihydropyrimidin-1(2H)-yl)-4-fluoro-3-hydroxy-4-methyltetrahydrofuran-2-yl)methoxy)(phenoxy)phosphoryl)amino)propanoate] |  | deliquesces after a few hours |
